The values that follow come from US7687482B2, “Bisphosphonate compounds and methods” (The Board of Trustees of the University of Illinois, priority 2006, dated 2010).

Like-named read-outs stand apart in the source and are kept apart here.

In assay [1] the test system is Gammadelta T cell. Nature of the assay: Gammadelta T cell stimulation. The class given is cell-based, human.
The subject of assay [2] is MCF-7 cell. Kind of assay: Tumor cell growth inhibition, MCF-7. It is filed as cell-based, human. The following applies: breast cancer cell line. On the procedure:
(§1) Bisphosphonate compounds were tested regarding tumor cell growth inhibition. […] See Table 1 and FIG. 3 showing dose-response data.

In assay [3] the test system is SF-268 cell. Kind of assay: Tumor cell growth inhibition, SF-268. It is filed as cell-based, human. To be noted: central nervous system (glioblastoma) cell line. As to the method:
as §1

For assay [4], the system named is NCI-H460 cell. Kind of assay: Tumor cell growth inhibition, NCI-H460. It is filed as cell-based, human. The following applies: lung cancer cell line. As to the method:
as §1

Assay [5] deals with T. brucei FPPS (Trypanosoma brucei, UniProt Q57WF1). Kind of assay: biochemical.
T. brucei FPPS, sequence (Q57WF1 entry or part of it): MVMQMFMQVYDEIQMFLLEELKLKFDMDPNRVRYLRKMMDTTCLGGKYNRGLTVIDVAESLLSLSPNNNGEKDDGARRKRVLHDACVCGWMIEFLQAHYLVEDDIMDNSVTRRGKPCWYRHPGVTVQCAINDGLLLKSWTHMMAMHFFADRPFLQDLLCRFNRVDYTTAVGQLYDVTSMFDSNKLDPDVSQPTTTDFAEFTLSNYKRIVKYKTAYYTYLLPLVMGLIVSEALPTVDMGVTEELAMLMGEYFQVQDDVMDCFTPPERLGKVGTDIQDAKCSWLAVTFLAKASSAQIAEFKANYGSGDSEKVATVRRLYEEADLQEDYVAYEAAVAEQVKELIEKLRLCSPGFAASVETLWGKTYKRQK
Assay [6] relates to D. discoideum. Kind of assay: D. discoideum growth inhibition. The class given is cell-based, Dictyostelium discoideum.
The target of assay [7] is undecaprenyl diphosphate synthase (UPPS) (Escherichia coli, UniProt P60472). Nature of the assay: UPPS inhibition. The class given is biochemical. As to the method: Certain compounds were also tested regarding the ability to inhibit undecaprenyl diphosphate synthase (UPPS). See results in Table 2. […] For example, an antibacterial treatment can include contacting a bacterial cell with a compound of the invention. In an embodiment, a bacterial cell can be, e.g., a Gram negative organism such as E. coli or a Gram positive organism such as Staphylococcus aureus.
undecaprenyl diphosphate synthase (UPPS), sequence (P60472 whole entry): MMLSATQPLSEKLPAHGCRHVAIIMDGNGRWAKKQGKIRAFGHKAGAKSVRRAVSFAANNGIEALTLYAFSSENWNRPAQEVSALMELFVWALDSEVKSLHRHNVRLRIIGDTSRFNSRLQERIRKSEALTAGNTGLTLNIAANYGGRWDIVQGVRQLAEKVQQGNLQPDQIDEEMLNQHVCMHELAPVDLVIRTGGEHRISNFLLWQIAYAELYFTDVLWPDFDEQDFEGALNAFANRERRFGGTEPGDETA

Assay [8] concerns the target T1, Human FPPS (Homo sapiens, UniProt P14324).
T1 sequence (P14324 1-419): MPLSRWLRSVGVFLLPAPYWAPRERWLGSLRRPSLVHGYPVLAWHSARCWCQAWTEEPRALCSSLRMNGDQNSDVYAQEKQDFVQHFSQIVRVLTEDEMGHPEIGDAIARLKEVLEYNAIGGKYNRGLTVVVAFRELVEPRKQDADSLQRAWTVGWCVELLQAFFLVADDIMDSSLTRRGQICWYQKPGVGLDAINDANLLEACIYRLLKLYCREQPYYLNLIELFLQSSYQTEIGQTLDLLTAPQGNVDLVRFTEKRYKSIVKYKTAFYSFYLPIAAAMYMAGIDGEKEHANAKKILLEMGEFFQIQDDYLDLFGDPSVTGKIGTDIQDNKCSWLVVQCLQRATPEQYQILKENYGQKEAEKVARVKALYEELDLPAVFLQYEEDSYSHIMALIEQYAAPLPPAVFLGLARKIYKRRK
Nature of the assay: Human FPPS inhibition. The class given is biochemical.

Assay [9] concerns E. coli. Kind of assay: Anti-bacterial activity in E. coli. It is filed as cell-based, Escherichia coli. From the text:
We considered aspects of mevalonate and non-mevalonate pathway gene regulation.

[10] abbreviates: Dictyostelium discoideum; read-out: D. discoideum IC50.

Usually EC50 stands for the concentration that produces a half-maximal response. A higher EC50 goes with weaker potency. `O=P(O)(O)C(O)(Cc1cccnc1)P(=O)(O)O` [3 (risedronate), risedronate, reference compound]: in [1] (Homo sapiens, T-cell), the EC50 was determined as 6.2 µM.
As usually defined, the IC50 is the concentration needed to halve the response being measured. For the molecule `CC(C)(C)C(=O)OCOP(=O)(OCOC(=O)C(C)(C)C)C(Cc1ccc(Cl)c(Cl)c1)P(=O)(OCOC(=O)C(C)(C)C)OCOC(=O)C(C)(C)C` [Compound 494, Tetrakis-pivaloyloxymethyl 2-(3,4-dichlorophenyl)ethylidene-1,1-bisphosphonate], the IC50 in [2] came out at 0.34 µM; in [3] it was 1.43 µM; in assay [4], 2.7 µM.
Regarding `O=P(O)(O)C(O)(Cc1ccc(-c2ccccc2-c2ccccc2)cc1)P(=O)(O)O` [Compound 624, 1-Hydroxy-2-[4-(2-phenylphenyl)phenyl]ethylidene-1,1-bisphosphonic acid], the IC50 was determined as 1060 µM in [2], 475 µM in assay [3] and 329 µM in assay [4].
With `O=P(O)(O)C(Cc1ccc(Br)c(Br)c1)P(=O)(O)O` [Compound 491, 2-(3,4-Dibromophenyl)ethylidene-1,1-bisphosphonic acid], the results for the IC50 in assay [2], in assay [3] and in assay [4] were 533 µM, 349 µM and 446 µM, respectively.
Regarding `O=P(O)(O)C(O)(Cn1ccnc1)P(=O)(O)O` [4 (zoledronate), zoledronate, reference compound], the IC50 in assay [5] came to 320 nM; in assay [6] (Dictyostelium discoideum, read-out: D. discoideum IC50) it was 1.9 µM.
On to `O=P(O)(O)C(O)(CCc1cccc(-c2ccc(-c3ccccc3)cc2)c1)P(=O)(O)O` [Compound 618, 1-Hydroxy-3-[3-(4-phenylphenyl)phenyl]propylidene-1,1-bisphosphonic acid], for which the half-maximal inhibitory concentration (IC50) in [2] worked out at 196 µM; in assay [3], 175 µM; in assay [4] it was 132 µM; in assay [7], 12500 nM.
“Tetrakis-isopropoxycarboxymethyl 2-(3-cyanophenyl)ethylidene-1,1-bisphosphonate [Compound 498]”: the IC50 in assay [2] was 58.6 µM; in [3], 7.77 µM; in assay [4] it was 22.6 µM.
Consider `O=P(O)(O)C(O)(CCc1cccc(-c2ccccc2-c2ccccc2)c1)P(=O)(O)O` [Compound 621, 1-Hydroxy-3-[3-(2-phenylphenyl)phenyl]propylidene-1,1-bisphosphonic acid], for which the IC50 in [2] (Homo sapiens, MCF7) is 146 µM; in assay [3] (Homo sapiens, SF-268), 143 µM; in assay [4] (Homo sapiens, NCI-H460), 133 µM; in assay [7], 7510 nM.
As to `CC(C)OC(=O)OCOP(=O)(OCOC(=O)OC(C)C)C(Cc1ccc(Cl)c(Cl)c1)P(=O)(OCOC(=O)OC(C)C)OCOC(=O)OC(C)C` [Compound 495, Tetrakis-isopropoxycarboxymethyl 2-(3,4-dichlorophenyl)ethylidene-1,1-bisphosphonate], the IC50 in assay [2] was 1.97 µM; in assay [3] it was 4.78 µM; in [4], 4.85 µM.
On to `O=P(O)(O)C(O)(C[S+]1CCCCC1)P(=O)(O)O` [Compound 6, 1-hydroxy-2-(pentamethylenesulfoniumyl)ethylidene-1,1-bisphosphonic acid], for which the values for the IC50 in assay [5] (read-out: T. brucei FPPS IC50) and in assay [6] (read-out: D. discoideum IC50) were 400 nM and 4.78 µM, respectively. The same molecule came in with an EC50 in assay [1] of 22.1 µM.
As usually defined, the Ki is a dissociation constant, usually derived from enzyme kinetics or from competition with a known ligand. High values mean lower affinity, low ones higher affinity. Consider `C[P+](C)(C)CC(O)(P(=O)(O)O)P(=O)(O)O` [Compound 7, 1-hydroxy-2-(trimethylphosphoniumyl)ethylidene-1,1-bisphosphonic acid], for which the affinity in assay [8] corresponds to a Ki of 8.18 nM. Also, the half-inhibitory concentration (IC50) worked out at 2000 nM in [5] (read-out: T. brucei FPPS IC50) and 13.8 µM in assay [6] (read-out: D. discoideum IC50). In addition, in assay [1], the EC50 worked out at 127 µM.
Consider “1-hydroxy-3-(trimethylphosphoniumyl)propylidene-1,1-bisphosphonic acid [Compound 9]”, for which, in assay [8], the affinity corresponds to a Ki of 22.6 nM. The same molecule yielded an EC50 in [1] of 1800 µM. Also, in assay [6] (read-out: D. discoideum IC50), the IC50 is 207 µM.
Regarding `O=P(O)(O)C(O)(c1cccc(-c2cccc(-c3ccccc3)c2)c1)P(=O)(O)O` [Compound 640, 1-Hydroxy-[3-(3-phenylphenyl)phenyl]methylene-1,1-bisphsophonic acid], the IC50 in assay [2] (Homo sapiens, MCF7) is 310 µM; in assay [3] (Homo sapiens, SF-268), 303 µM; in assay [4] (Homo sapiens, NCI-H460), 285 µM; in assay [7], 1860 nM.
Turning to `O=P(O)(O)C(O)(Cc1cccc(-c2ccccc2-c2ccccc2)c1)P(=O)(O)O` [Compound 623, 1-Hydroxy-2-[3-(2-phenylphenyl)phenyl]ethylidene-1,1-bisphsophonic acid], the values for the IC50 in [2], in [3] and in [4] were 92.7 µM, 58 µM and 86.1 µM, respectively.
As for `NCCCC(O)(P(=O)(O)O)P(=O)(O)O` [2 (alendronate), alendronate, reference compound], the response in assay [1] (Homo sapiens, T-cell) was half-maximal at 52 µM (EC50). Moreover, in [6] (setting [10]), the IC50 stood at 32 µM.
For `C[S+](CCCc1ccccc1)CC(O)(P(=O)(O)O)P(=O)(O)O` (centres unmarked) [Compound 23, 1-hydroxy-2-(S-methyl-3-phenylpropylsulfoniumyl)ethylidene-1,1-bisphosphonic acid], the affinity in assay [8], expressed as Ki, was 5.68 nM. Further, the IC50 in assay [5] (read-out: T. brucei FPPS IC50) worked out at 180 nM; in [6] (read-out: D. discoideum IC50) it was 1.85 µM.
For the molecule `O=P(O)(O)C(O)(CCc1cccc(-c2cccc(-c3ccccc3)c2)c1)P(=O)(O)O` [Compound 622, 1-Hydroxy-3-[3-(3-phenylphenyl)phenyl]propylidene-1,1-bisphsophonic acid], the IC50 was found to be 43.9 µM in assay [2] (Homo sapiens, MCF7); 44.7 µM in assay [3] (Homo sapiens, SF-268); 46.9 µM in assay [4] (Homo sapiens, NCI-H460); 2390 nM in [7].
Regarding “Tetrakis-isopropoxycarboxymethyl 2-(3,4-difluorophenyl)ethylidene-1,1-bisphosphonate [Compound 496]”, the results for the IC50 in assay [2], in [3] and in assay [4] were 15.2 µM, 28.3 µM and 20.1 µM, respectively.
As to `O=CN(O)CCCP(=O)(O)O` [fosmidomycin], the anti-bacterial properties result in assay [9] is listed as “anti-bacterial properties”.
With `O=P(O)(O)C(O)(Cc1ccc(-c2cccc(-c3ccccc3)c2)cc1)P(=O)(O)O` [Compound 625, 1-Hydroxy-2-[4-(3-phenylphenyl)phenyl]ethylidene-1,1-bisphosphonic acid], the IC50 in [2] (Homo sapiens, MCF7) came out at 412 µM; in assay [3] (Homo sapiens, SF-268) it was 620 µM; in assay [4] (Homo sapiens, NCI-H460), 413 µM; in assay [7], 890 nM.
Consider `CC(C)(C)C(=O)OCOP(=O)(OCOC(=O)C(C)(C)C)C(Cc1cccc(-c2cccc(-c3ccccc3)c2)c1)P(=O)(OCOC(=O)C(C)(C)C)OCOC(=O)C(C)(C)C` [Compound 647, Tetrakis-pivaloyloxymethyl 2-[3-(3-phenylphenyl)phenyl]ethylidene-1,1-bisphosphonate], for which the IC50 in assay [2] is 2.62 µM; in [3] it was 2.38 µM; in assay [4], 1.64 µM.
Consider `CC[S+](CCCOc1ccccc1)CCC(O)(P(=O)(O)O)P(=O)(O)O` (centres unmarked) [Compound 16, 1-hydroxy-3-(S-ethyl-3-phenoxypropylsulfoniumyl)propylidene-1,1-bisphosphonic acid], for which the affinity in assay [8], expressed as Ki, was 5.2 nM. Further, the EC50 in [1] stood at 199 µM. The IC50 in assay [6] (read-out: D. discoideum IC50) was found to be 4.23 µM.
Turning to `O=P(O)(O)C(O)(Cc1cccc(-c2cccc(-c3ccccc3)c2)c1)P(=O)(O)O` [Compound 608, 1-Hydroxy-2-[3-(3-phenylphenyl)phenyl]ethylidene-1,1-bisphsophonic acid], the IC50 in assay [2] (Homo sapiens, MCF7) was determined as 152 µM; in assay [3] (Homo sapiens, SF-268), 130 µM; in assay [4] (Homo sapiens, NCI-H460), 140 µM; in [7], 610 nM.
Regarding `NCCC(O)(P(=O)(O)O)P(=O)(O)O` [1 (Pamidronate), Pamidronate, reference compound], the IC50 in [6] (setting [10]) is 167 µM.
As to `CC(C)(C)C(=O)OCOP(=O)(OCOC(=O)C(C)(C)C)C(Cc1ccc(Br)c(Br)c1)P(=O)(OCOC(=O)C(C)(C)C)OCOC(=O)C(C)(C)C` [Compound 493, Tetrakis-pivaloyloxymethyl 2-(3,4-dibromophenyl)ethylidene-1,1-bisphosphonate], the IC50 worked out at 0.22 µM in assay [2], 0.65 µM in assay [3] and 0.62 µM in assay [4].
